Reference: patent publication US20200255828A1, “METHODS AND COMPOSITIONS FOR ALTERING FUNCTION AND STRUCTURE OF CHROMATIN LOOPS AND/OR DOMAINS” (THE BROAD INSTITUTE, INC., priority 2017, published 2020)

Key:
histone modifications = experiment: ChIP-Seq for histone modifications before and after auxin; format: cell-based, human
From the text: Applicants first examined the effects of cohesin degradation on key epigenomic features associated with genome folding, using ChIP-Seq. Applicants examined the distribution of CTCF (associated with loop anchors) and the histone modifications H3K27me3, H3K36me3, H3K27Ac, H3K4me1, H3K4me3, H3K9me3, H4K16Ac, H4K20me3, H3K79me2, and H2.AZ (associated with compartment intervals). Cohesin loss had little effect on these features (FIG. 1C,D; FIG. 8C-E, see Methods).
ChIP-Seq for H3K27Ac, H3K4me1, H3K4me3, H3K36me3, H3K27me3, H3K9me3, H4K16Ac, H4K20me3, H3K79me2, and H2.AZ was performed using a native ChIP-Seq protocol. Chromatin from untreated HCT-116 RAD21-mAC cells or cells treated for 6 hours with 500 uM IAA was digested with Mnase (Sigma) in digestion buffer (50 mM Tris-HCl, pH7.6, 1 mM CaCl2), 0.2% Triton X-100, butyrate 5 mM) for 5′ at 37° C. and dialyzed against RIPA buffer for 2 hrs at 4° C. Five microgram of respective antibody was incubated with 40 μl of Dynabeads Protein A (or G) for 40 min at room temperature. Antibody-bound beads were added to 500 μl of sonicated or Mnase-digested chromatin, incubated at 4° C. overnight, and washed twice with RIPA buffer, twice with RIPA buffer containing 0.3 M NaCl, twice with LiCl buffer (0.25 M LiCl, 0.5% Igepal-630, 0.5% sodium deoxycholate), once with TE (pH 8.0) plus 0.2% Triton X-100, and once with TE (pH 8.0). ChIP DNA was purified by phenol-chloroform extraction followed by ethanol precipitation. Libraries were prepped for Illumina sequencing and 50 bp single-end reads were sequenced on a HiSeq2000 or 2500 (Illumina). Applicants also performed ChIP-Seq for RAD21 and CTCF following the same protocol as above, except that cells were fixed with 1% formaldehyde for 10 minutes at 37° C. and fixation was quenched by the addition of glycine to a final concentration of 125 mM for 10 minutes. The fixed cells were sonicated using a Branson sonifier at amplitude 35%, 12 cycles of 20 seconds of sonication and 30 seconds of pause. Antibody was added to the sonicated chromatin as above and the samples were further processed as above.
All ChIP-Seq data was aligned to hg19 with BWA […] (Li and Durbin, 2010), deduplicated using PicardTools, and analyzed with MACS 2.0 (Liu, 2014). All data was normalized against the corresponding input control using the ‘-c’ option of MACS 2.0. ChIP-Seq peaks were called using the ‘callpeak’ function of MACS 2.0 with default parameters. For H3K4me3 and H3K4me1, Applicants additionally used the ‘broad’ option of MACS 2.0 and merged close by peaks to identify broad peaks. […] Finally, in order to annotate broad-source domains, Applicants utilized RSEG (Song and Smith, 2011) using the following flags: ‘-b 25000’, ‘-i 20’, ‘-mode 2’.
Applicants calculated average signal over 5 kb bins across the entire genome and correlated signal between ChIP-Seq experiments before and after auxin treatment for each of CTCF, H3K27me3, H3K9me3, H3K4me1, H3K4me3 and H3K27Ac.
Additionally, Applicants examined overlaps of our ChIP-Seq peak annotations before and after auxin treatment for H3K4me3, H3K4me1 and H3K27Ac. […]

HCT-116 RAD21-mAC cells = experiment: APA for cohesin-independent links after cohesin degradation with ATP depletion; format: cell-based, human; details: auxin 6 hours, without any additional treatment
From the text: Using the degron system, Applicants can directly measure the influence of cellular processes on loop formation (Vian et al, 2018). […] Applicants also tested interchromasomal cohesin-independent links requirement for ATP after cohesin degradation and observed that depletion of ATP strengthens the interactions between superenhancers (FIG. 23).

O=C(O)Cc1c[nH]c2ccccc12 [auxin, indole-3-acetic acid]
overlap of H3K4me1 ChIP-Seq peaks called before and after auxin treatment (histone modifications): 85%
overlap of H3K4me3 ChIP-Seq peaks called before and after auxin treatment (histone modifications): 90%
overlap of H3K27Ac ChIP-Seq peaks called before and after auxin treatment (histone modifications): 81%
Spearman's r of ChIP-Seq signal before vs after auxin treatment, H2.AZ (histone modifications; 5 kb bins genome-wide): 0.96
Spearman's r of ChIP-Seq signal before vs after auxin treatment, H3K4me1 (histone modifications; 5 kb bins genome-wide): 0.94
Spearman's r of ChIP-Seq signal before vs after auxin treatment, H3K4me3 (histone modifications; 5 kb bins genome-wide): 0.70
Spearman's r of ChIP-Seq signal before vs after auxin treatment, H3K9me3 (histone modifications; 5 kb bins genome-wide): 0.95
Spearman's r of ChIP-Seq signal before vs after auxin treatment, H3K27Ac (histone modifications; 5 kb bins genome-wide): 0.90
Spearman's r of ChIP-Seq signal before vs after auxin treatment, H3K27me3 (histone modifications; 5 kb bins genome-wide): 0.95
Spearman's r of ChIP-Seq signal before vs after auxin treatment, H3K36me3 (histone modifications; 5 kb bins genome-wide): 0.94
Spearman's r of ChIP-Seq signal before vs after auxin treatment, H3K79me2 (histone modifications; 5 kb bins genome-wide): 0.96
Spearman's r of ChIP-Seq signal before vs after auxin treatment, H4K16Ac (histone modifications; 5 kb bins genome-wide): 0.95
Spearman's r of ChIP-Seq signal before vs after auxin treatment, H4K20me3 (histone modifications; 5 kb bins genome-wide): 0.89
APA score for cohesin-independent links (HCT-116 RAD21-mAC cells): 8.28
